Consider 34 compounds from ChEMBL document CHEMBL4342414, “Activity of 2,6,9-trisubstituted purines as potent PDGFRα kinase inhibitors with antileukaemic activity” (Eur J Med Chem, 2019).

One data set concerns EOL1. The experiment in a line: Cytotoxicity against FIP1L1-PDGFRA positive human EOL-1 cells assessed as growth inhibition after 72 hrs by resazurin dye-based fluorescence analysis. The class given is functional. To be noted: EOL1, 72 h.
Data set [1] in a line: Cytotoxicity against human CEM cells assessed as growth inhibition after 72 hrs by resazurin dye-based fluorescence analysis. The class given is cell-based. To be noted: CEM (CCRF-CEM) cells. In general terms: Resazurin is reduced to fluorescent resorufin, in cell work by metabolically active cells.
In a further data set the test system is K562. The experiment in a line: Cytotoxicity against human K562 cells assessed as growth inhibition after 72 hrs by resazurin dye-based fluorescence analysis. Type of data set: functional. To be noted: K562, 72 h.
The subject of a further data set is HCC827. The experiment in a line: Cytotoxicity against human HCC827 cells assessed as growth inhibition after 72 hrs by resazurin dye-based fluorescence analysis. The class given is functional. As to conditions: HCC827, 72 h.
A short description of data set [2]: Cytotoxicity against human BJ cells assessed as growth inhibition after 72 hrs by resazurin dye-based fluorescence analysis. The class given is cell-based.

Broadly, the GI50 is the concentration at which growth is held to half of that of the control. Regarding `NCCCCNc1nc(Nc2ccc(N3CCN(Cc4ccccc4)CC3)cc2)c2ncn(CCCO)c2n1`, the GI50 is 0.158 µM in the data set with EOL1, 2.57 µM in the data set with K562 and 6.7 µM in the data set with HCC827. The GI50 at 72 h in data set [1] amounted to 7.57 µM; in data set [2] it was 28.5 µM.
Taken in the same sequence, the figures for `OCCCCNc1nc(Nc2ccc(N3CCN(Cc4ccccc4)CC3)cc2)c2ncn(C3CCC(O)C3)c2n1` (centres undefined) were 0.223 µM, 3.73 µM, 3.96 µM, 9.09 µM and 23.8 µM.
In the same order, the values of `COc1ccccc1-c1ccc(Nc2nc(N[C@H]3CC[C@H](N)CC3)nc3c2ncn3C2CCCC2)cc1` are 0.117 µM, 2.32 µM, 2.3 µM, 2.35 µM and 22.8 µM.
With `N[C@H]1CC[C@H](Nc2nc(Nc3cccc(CN4CCOCC4)c3)c3ncn(CCCO)c3n2)CC1`, the figures for the GI50 in the data set with EOL1, in the data set on K562 and in the data set with HCC827 were 0.075 µM, more than 40 µM and 25.5 µM, respectively. For the same compound, the 50% growth inhibitory concentration (GI50) at 72 h in data set [1] and in data set [2] was more than 40 µM each time.
As for `NCCCCNc1nc(Nc2ccc(CN3CCOCC3)cc2)c2ncn(CCCO)c2n1`, the GI50 in the data set with EOL1 worked out at 0.138 µM; with K562 it was 9.37 µM; in the data set on HCC827 it was 19 µM. The GI50 at 72 h turned out to be 8.2 µM in data set [1] and 35 µM in data set [2].
In the same order, the values of `Nc1ccccc1-c1ccc(Nc2nc(N[C@H]3CC[C@H](N)CC3)nc3c2ncn3C2CCCC2)cc1` are 0.018 µM, 1.07 µM, 0.81 µM, 0.677 µM and 12.5 µM.
Taken in the same sequence, the figures for `N[C@H]1CC[C@H](Nc2nc(Nc3ccc(Oc4ccc(Br)cn4)cc3)c3ncn(C4CCCC4)c3n2)CC1` were 0.122 µM, 6.08 µM, 3.73 µM, 6.16 µM and more than 40 µM.
Taken in the same sequence, the figures for `COc1ccc(-c2ccc(Nc3nc(N[C@H]4CC[C@H](N)CC4)nc4c3ncn4C3CCCC3)cn2)cc1` were 0.025 µM, 0.698 µM, 0.581 µM, 0.544 µM and 7.23 µM.
In the case of `OCCCNc1nc(Nc2ccc(Oc3nccs3)cc2)c2ncn(C3CCCC3)c2n1`, the results for the GI50 in the data set with EOL1, in the data set on K562 and in the data set with HCC827 were 0.442 µM, 11.3 µM and 6.49 µM, respectively. The GI50 at 72 h in data set [1] was determined as 23 µM; in data set [2], 34.1 µM.
Taken in the same sequence, the figures for `OCCCCNc1nc(Nc2cccc(CN3CCOCC3)c2)c2ncn(C3CCCC3)c2n1` were 0.282 µM, 30.4 µM, 8.13 µM, 11.1 µM and 25.7 µM.
In the same order, the values of `OCCCCNc1nc(Nc2ccc(Oc3nccs3)cc2)c2ncn(C3CCCC3)c2n1` are 0.489 µM, 6.08 µM, 6.05 µM, 13.4 µM and 23.5 µM.
Taken in the same sequence, the figures for `N[C@H]1CC[C@H](Nc2nc(Nc3ccc(CN4CCOCC4)cc3)c3ncn(C4CCC(O)C4)c3n2)CC1` (some centres undefined) were 0.008 µM, 1.04 µM, 0.801 µM, 1.42 µM and more than 40 µM.
Take `NCCCCNc1nc(Nc2ccc(Oc3nccs3)cc2)c2ncn(C3CCCC3)c2n1`: the concentration for 50% growth inhibition (GI50) in the data set on EOL1 was found to be 0.118 µM; with K562, 5.98 µM; with HCC827, 6.31 µM. The GI50 at 72 h came to 8.64 µM in data set [1] and 18.6 µM in data set [2].
Taken in the same sequence, the figures for `NCCCCNc1nc(Nc2ccc(N3CCN(Cc4ccccc4)CC3)cc2)c2ncn(C3CCC(O)C3)c2n1` (centres undefined) were 0.046 µM, 1.63 µM, 2.29 µM, 3.67 µM and 13.2 µM.
Taken in the same sequence, the figures for `N[C@H]1CC[C@H](Nc2nc(Nc3ccc(-c4ccoc4)nc3)c3ncn(C4CCCC4)c3n2)CC1` were 0.017 µM, 0.876 µM, 0.632 µM, 0.619 µM and 13.1 µM.
Taken in the same sequence, the figures for `NCCCCNc1nc(Nc2ccc(CN3CCOCC3)cc2)c2ncn(C3CCCC3)c2n1` were 0.049 µM, 2.79 µM, 2.04 µM, 3.04 µM and 9.54 µM.
Turning to `OCCCCNc1nc(Nc2ccc(CN3CCOCC3)cc2)c2ncn(C3CCC(O)C3)c2n1` (centres undefined), the GI50 turned out to be 0.162 µM in the data set on EOL1, 3.78 µM in the data set with K562 and 3.26 µM with HCC827. The GI50 at 72 h was 6.43 µM in data set [1] and 26.1 µM in data set [2].
In the same order, the values of `N[C@H]1CC[C@H](Nc2nc(Nc3ccc(N4CCN(Cc5ccccc5)CC4)cc3)c3ncn(CCCO)c3n2)CC1` are 0.058 µM, 2.67 µM, 2.38 µM, 4.56 µM and 16.5 µM.
Turning to `OCCCCNc1nc(Nc2ccc(CN3CCOCC3)cc2)c2ncn(C3CCCC3)c2n1`, the GI50 worked out at 0.202 µM in the data set on EOL1 and 2.51 µM in the data set with HCC827. Also, the GI50 at 72 h was 3.48 µM in data set [1] and 22.8 µM in data set [2].
With `N[C@H]1CC[C@H](Nc2nc(Nc3ccc(-c4cccs4)nc3)c3ncn(C4CCCC4)c3n2)CC1`, the GI50 with EOL1 worked out at 0.021 µM; in the data set with K562 it was 0.574 µM; in the data set on HCC827 it was 0.652 µM. For the same compound, the GI50 at 72 h in data set [1] was determined as 0.477 µM; in data set [2], 2.94 µM.
In the same order, the values of `NCCCCNc1nc(Nc2cccc(CN3CCOCC3)c2)c2ncn(C3CCCC3)c2n1` are 0.061 µM, 8.4 µM, 5.37 µM, 8.19 µM and 22 µM.
Taken in the same sequence, the figures for `N[C@H]1CC[C@H](Nc2nc(Nc3cccc(CN4CCOCC4)c3)c3ncn(C4CCC(O)C4)c3n2)CC1` (some centres undefined) were 0.009 µM, 1.85 µM, 1.67 µM, 1.65 µM and more than 40 µM.
Turning to `N[C@H]1CC[C@H](Nc2nc(Nc3ccc(N4CCN(Cc5ccccc5)CC4)cc3)c3ncn(C4CCC(O)C4)c3n2)CC1` (some centres undefined), the GI50 came out at 0.011 µM in the data set with EOL1, 0.652 µM in the data set on K562 and 0.84 µM with HCC827. Further, the 50% growth inhibitory concentration (GI50) at 72 h in data set [1] came out at 0.54 µM; in data set [2], 16.9 µM.
Taken in the same sequence, the figures for `OCCCCNc1nc(Nc2ccc(N3CCN(Cc4ccccc4)CC3)cc2)c2ncn(CCCO)c2n1` were 1.01 µM, 8.67 µM, 9.8 µM, 27.9 µM and more than 40 µM.
In the same order, the values of `CC(C)(C)c1cc(NC(=O)Nc2ccc(-c3cn4c(n3)sc3cc(OCCN5CCOCC5)ccc34)cc2)no1` [QUIZARTINIB] are less than 0.0005 µM, more than 40 µM, more than 40 µM, more than 40 µM and more than 40 µM.
In the same order, the values of `c1csc(Oc2ccc(Nc3nc(N4CCOCC4)nc4c3ncn4C3CCCC3)cc2)n1` are 0.347 µM, more than 40 µM, 15.4 µM, more than 40 µM and more than 40 µM.
For the compound `COc1ccccc1-c1ccc(Nc2nc(N[C@H]3CC[C@H](N)CC3)nc3c2ncn3C2CCCC2)cn1`, the GI50 turned out to be 0.014 µM in the data set on EOL1, 0.553 µM in the data set with K562 and 0.638 µM with HCC827. The values for the GI50 at 72 h in data set [1] and in data set [2] were 0.46 µM and 6.2 µM, respectively.
Taken in the same sequence, the figures for `N[C@H]1CC[C@H](Nc2nc(Nc3ccc(Oc4nccs4)cc3)c3ncn(C4CCCC4)c3n2)CC1` were 0.008 µM, 0.676 µM, 0.692 µM, 0.65 µM and 6.85 µM.
In the same order, the values of `N[C@H]1CC[C@H](Nc2nc(Nc3ccc(-c4ccccc4O)nc3)c3ncn(C4CCCC4)c3n2)CC1` are 0.085 µM, 0.5 µM, 0.653 µM, 0.617 µM and 6.35 µM.
In the case of `N[C@H]1CC[C@H](Nc2nc(Nc3cccc(CN4CCOCC4)c3)c3ncn(C4CCCC4)c3n2)CC1`, the results for the GI50 in the data set with EOL1, in the data set with K562 and in the data set with HCC827 were 0.012 µM, 1.28 µM and 1.19 µM, respectively. Moreover, the GI50 at 72 h was found to be 1.36 µM in data set [1] and 14.7 µM in data set [2].
Taken in the same sequence, the figures for `N[C@H]1CC[C@H](Nc2nc(Nc3ccc(-c4ccccc4O)cc3)c3ncn(C4CCCC4)c3n2)CC1` were 0.053 µM, 2.08 µM, 2.53 µM, 1.49 µM and 9.59 µM.
Taken in the same sequence, the figures for `NCCCCNc1nc(Nc2ccc(CN3CCOCC3)cc2)c2ncn(C3CCC(O)C3)c2n1` (centres undefined) were 0.036 µM, 2.23 µM, 3.23 µM, 5.51 µM and 4.9 µM.
In the same order, the values of `N[C@H]1CC[C@H](Nc2nc(Nc3ccc(-n4cncn4)cc3)c3ncn(C4CCCC4)c3n2)CC1` are 0.008 µM, 1.55 µM, 1.42 µM, 0.871 µM and 14.7 µM.
For `N[C@H]1CC[C@H](Nc2nc(Nc3ccc(CN4CCOCC4)cc3)c3ncn(CCCO)c3n2)CC1`, the GI50 in the data set with EOL1 worked out at 0.164 µM; with K562 it was 9.93 µM; in the data set on HCC827, 18.4 µM. In addition, the GI50 at 72 h was 34.5 µM in data set [1] and more than 40 µM in data set [2].
